US11661397B2, “1,4-disubstituted imidazole derivative” (Sumitomo Pharma Co., Ltd., priority 2015, dated 2023)

Tests used:
HCT-116 cells [1] = assay: Inhibition of sphere-forming ability of cancer cells (Test Example 1); type: cell-based; details: Homo sapiens, 96 h; HCT-116 spheres, non-adherent, serum-free, 4 days, CellTiter-Glo; read-out: Sphere IC50 value (concentration for 50% inhibition of cell proliferation)
Method: (§1) HCT-116 cells were available from the American Type Culture Collection (ATCC). HCT-116 cells were cultured at 37° C. and 5% CO2 using the McCoy's 5a medium containing 10% fetal bovine serum (FBS) and 1% penicillin/streptomycin. […] The test compounds were added into each well to adjust the final concentration of DMSO to 0.1%, and the cells were cultured for 4 days.

HCT-116 cells [2] = assay: Test for inhibiting sphere-forming ability of cancer cells in the presence of BSA (Test Example 2); type: cell-based; details: Homo sapiens, 96 h; HCT-116 spheres, 5% bovine serum albumin (BSA), 4 days, CellTiter-Glo; read-out: Sphere IC50 value (concentration for 50% inhibition of cell proliferation)
Method: as §1

Row | SMILES | IC50 (HCT-116 cells [1]) | IC50 (HCT-116 cells [2])
1 | O=C(Nc1cn(Cc2cccc(C(F)(F)F)c2)cn1)c1cnc(CO)c(Cl)c1 [Example 31] | < 0.01 µM | < 0.01 µM
2 | O=C(Nc1cn(Cc2cccc(Br)c2)cn1)c1cnc(CO)c(C(F)F)c1 [Example 58, N-[1-(3-bromobenzyl)-1H-imidazol-4-yl]-5-(difluoromethyl)-6-(hydroxymethyl)nicotinamide] | 0.07 µM | 0.08 µM
3 | O=C(Nc1cn(Cc2cccc(C(F)(F)F)c2)cn1)c1coc(CO)n1 [Example 37] | 0.238 µM | 0.451 µM
4 | [2H]C([2H])(O)c1ccc(C(=O)Nc2cn(Cc3cccc(C(F)(F)F)c3)cn2)cn1 [Example 4, 6-[Hydroxy (^2H2)methyl]-N-{1-[3-(trifluoromethyl)benzyl]-1H-imidazol-4-yl}nicotinamide] | < 0.01 µM | 0.061 µM
5 | O=C(Nc1cn(Cc2cccc(C(F)(F)F)c2)cn1)c1cnc(C(O)CO)c(Br)c1 (centres unmarked) [Example 29] | 0.633 µM | 3.5 µM
6 | O=C(Nc1cn(Cc2cccc(C(F)(F)F)c2)cn1)c1cnc(CO)c(Br)c1 [Example 32] | < 0.01 µM | 0.068 µM
7 | CC(C)(O)c1ccc(/C=C/C(=O)Nc2cn(Cc3cccc(C(F)(F)F)c3)cn2)cn1 [Example 53, (2E)-3-[6-(2-Hydroxypropan-2-yl)pyridin-3-yl]-N-{1-[3-(trifluoromethyl)benzyl]-1H-imidazol-4-yl}prop-2-enamide] | 7.2 µM | < 10 µM
8 | O=C(Nc1cn(Cc2cc(F)cc(Cl)c2)cn1)c1cnc(CO)c(C(F)F)c1 [Example 78, N-[1-(3-chloro-5-fluorobenzyl)-1H-imidazol-4-yl]-5-(difluoromethyl)-6-(hydroxymethyl)nicotinamide] | 0.05 µM | 0.06 µM
9 | O=C(Nc1cn(Cc2cc(Cl)cc(Cl)c2)cn1)c1cnc(CO)c(C(F)F)c1 [Example 75, N-[1-(3,5-dichlorobenzyl)-1H-imidazol-4-yl]-5-(difluoromethyl)-6-(hydroxymethyl)nicotinamide] | < 0.01 µM | 0.05 µM
10 | COc1cc(C(=O)Nc2cn(Cc3cccc(C(F)(F)F)c3)cn2)cnc1CO [Example 33] | 9.79 µM | 
11 | C=Cc1cc(C(=O)Nc2cn(Cc3cccc(C(F)(F)F)c3)cn2)cnc1CO [Example 43, 5-Ethenyl-6-(hydroxymethyl)-N-{1-[3-(trifluoromethyl)benzyl]-1H-imidazol-4-yl}nicotinamide] | 5.6 µM | 6.51 µM
12 | O=C(Nc1cn(Cc2cccc(C(F)(F)F)c2)cn1)c1cnc(CO)cn1 [Example 20] | 0.053 µM | 0.313 µM
13 | CC(C)(O)c1ccc(C(=O)Nc2cn(Cc3cccc(C(F)(F)F)c3)cn2)cn1 [Example 5, 6-(2-Hydroxypropan-2-yl)-N-{1-[3-(trifluoromethyl)benzyl]-1H-imidazol-4-yl}nicotinamide] | 8.4 µM | 
14 | Cc1ccc(Cn2cnc(NC(=O)c3cnc(CO)c(C(F)F)c3)c2)cc1C(F)(F)F [Example 70, 5-(difluoromethyl)-6-(hydroxymethyl)-N-{1-[4-methyl-3-(trifluoromethyl)benzyl]-1H-imidazol-4-yl}nicotinamide] | < 0.01 µM | 0.06 µM
15 | Cc1cc(CO)ncc1C(=O)Nc1cn(Cc2cccc(C(F)(F)F)c2)cn1 [Example 35] | 3.76 µM | 6.11 µM
16 | NCc1ccc(C(=O)Nc2cn(Cc3cccc(C(F)(F)F)c3)cn2)cn1 [Example 24, 6-(Aminomethyl)-N-{1-[3-(trifluoromethyl)benzyl]-1H-imidazol-4-yl}nicotinamide ditrifluoroacetate] | 0.061 µM | 0.696 µM
17 | C=C(CO)c1ccc(C(=O)Nc2cn(Cc3cccc(C(F)(F)F)c3)cn2)cn1 [Example 15] | 0.71 µM | 5.77 µM
18 | CCc1cc(C(=O)Nc2cn(Cc3cccc(C(F)(F)F)c3)cn2)cnc1CO [Example 44, 5-Ethyl-6-(hydroxymethyl)-N-{1-[3-(trifluoromethyl)benzyl]-1H-imidazol-4-yl}nicotinamide] | 0.758 µM | 5.11 µM
19 | O=C(Nc1cn(Cc2cc(F)cc(C(F)(F)F)c2)cn1)c1cnc(CO)c(C(F)F)c1 [Example 60, 5-(difluoromethyl)-N-{1-[3-fluoro-5-(trifluoromethyl)benzyl]-1H-imidazol-4-yl}-6-(hydroxymethyl)nicotinamide] | 0.03 µM | 0.06 µM
20 | Cc1cccc(Cn2cnc(NC(=O)c3cnc(CO)c(C(F)F)c3)c2)c1 [Example 63, 5-(difluoromethyl)-6-(hydroxymethyl)-N-[1-(3-methylbenzyl)-1H-imidazol-4-yl]nicotinamide] | 0.69 µM | 0.6 µM
21 | Cc1nc(CO)ccc1C(=O)Nc1cn(Cc2cccc(C(F)(F)F)c2)cn1 [Example 34] | 7.39 µM | 
22 | O=C(Nc1cn(Cc2cccc(C(F)(F)F)c2)cn1)c1cnc(CO)c(C(F)(F)F)c1 [Example 19, 6-(hydroxymethyl)-5-(trifluoromethyl)-N-{1-[3-(trifluoromethyl)benzyl]-1H-imidazol-4-yl}nicotinamide] | 0.07 µM | 0.403 µM
23 | COCc1ccc(C(=O)Nc2cn(Cc3cccc(C(F)(F)F)c3)cn2)cn1 [Example 9] | 5.04 µM | 
24 | CNCc1ccc(C(=O)Nc2cn(Cc3cccc(C(F)(F)F)c3)cn2)cn1 [Example 26, 6-[(Methylamino)methyl]-N-{1-[3-(trifluoromethyl)benzyl]-1H-imidazol-4-yl}nicotinamide] | 0.824 µM | 
25 | O=C(/C=C/c1cnc(CO)c(Cl)c1)Nc1cn(Cc2cccc(C(F)(F)F)c2)cn1 [Example 52] | 0.05 µM | 0.41 µM
26 | COc1cc(Cn2cnc(NC(=O)c3cnc(CO)c(C(F)F)c3)c2)cc(C(F)(F)F)c1 [Example 65, 5-(difluoromethyl)-6-(hydroxymethyl)-N-{1-[3-methoxy-5-(trifluoromethyl)benzyl]-1H-imidazol-4-yl}nicotinamide] | 0.63 µM | 0.66 µM
27 | O=C(Nc1cn(Cc2cccc(C(F)(F)F)c2)cn1)c1ccc(/C=C/CO)nc1 [Example 14] | 6.04 µM | 

Further lines, results first:

Row | IC50 (HCT-116 cells [1]) | IC50 (HCT-116 cells [2]) | SMILES
28 | < 0.01 µM | < 0.01 µM | O=C(Nc1ccc(CO)nc1)c1cn(Cc2cc(F)c(F)c(F)c2)cn1 [Example 22, N-[6-(Hydroxymethyl)pyridin-3-yl]-1-(3,4,5-trifluorobenzyl)-1H-imidazole-4-carboxamide]
29 | 0.04 µM | 0.07 µM | O=C(Nc1cn(Cc2ccc(Br)c(F)c2)cn1)c1cnc(CO)c(C(F)F)c1 [Example 67, N-[1-(4-bromo-3-fluorobenzyl)-1H-imidazol-4-yl]-5-(difluoromethyl)-6-(hydroxymethyl)nicotinamide]
30 | 0.007 µM | 0.007 µM | O=C(Nc1cn(Cc2cc(F)c(F)c(F)c2)cn1)c1ccc(CO)nc1 [Example 10, 6-(Hydroxymethyl)-N-[1-(3,4,5-trifluorobenzyl)-1H-imidazol-4-yl]nicotinamide]
31 | 0.148 µM | 0.603 µM | O=C(Nc1cn(Cc2ccc(F)c(F)c2)cn1)c1cnc(CO)c(C(F)F)c1 [Example 54, N-[1-(3,4-difluorobenzyl)-1H-imidazol-4-yl]-5-(difluoromethyl)-6-(hydroxymethyl)nicotinamide]
32 | 0.675 µM | 0.735 µM | O=C(Nc1cn(Cc2cc(F)c(F)c(F)c2)cn1)c1ccc(CCO)nc1 [Example 13]
33 | 0.07 µM | 0.06 µM | O=C(Nc1cn(Cc2ccc(Cl)c(F)c2)cn1)c1cnc(CO)c(C(F)F)c1 [Example 66, N-[1-(4-chloro-3-fluorobenzyl)-1H-imidazol-4-yl]-5-(difluoromethyl)-6-(hydroxymethyl)nicotinamide]
34 | 0.079 µM | 0.084 µM | O=C(Nc1ccc2nc(CO)ccc2c1)c1cn(Cc2cc(F)c(F)c(F)c2)cn1 [Example 23, N-[2-(hydroxymethyl)quinolin-6-yl]-1-(3,4,5-trifluorobenzyl)-1H-imidazole-4-carboxamide]
35 | 0.061 µM | 0.081 µM | O=C(Nc1cn(Cc2cc(F)c(F)c(F)c2)cn1)c1cnc(CO)c(Br)c1 [Example 38]
36 | 0.02 µM | 0.03 µM | O=C(Nc1cn(Cc2cc(F)c(F)c(F)c2)cn1)c1ccc(CO)nn1 [Example 85, 6-(Hydroxymethyl)-N-[1-(3,4,5-trifluorobenzyl)-1H-imidazol-4-yl]pyridazine-3-carboxamide]
37 | 0.669 µM | 5.46 µM | Cc1sc(C(=O)Nc2cn(Cc3cc(F)c(F)c(F)c3)cn2)nc1CO [Example 47, 4-(Hydroxymethyl)-5-methyl-N-[1-(3,4,5-trifluorobenzyl)-1H-imidazol-4-yl]-1,3-thiazole-2-carboxamide]
38 | 0.056 µM |  | O=C(Nc1cn(Cc2cccc(Cl)c2)cn1)c1ccc(CO)nc1 [Example 11]
39 | 0.892 µM | 1.45 µM | CCOCc1ccc(C(=O)Nc2cn(Cc3cc(F)c(F)c(F)c3)cn2)cn1 [Example 16]
40 | 0.069 µM | 0.563 µM | O=C(Nc1cn(Cc2cccc(C(F)(F)F)c2)cn1)c1cnc(CO)c(F)c1 [Example 30, 5-Fluoro-6-(hydroxymethyl)-N-{1-[3-(trifluoromethyl)benzyl]-1H-imidazol-4-yl}nicotinamide]
41 | < 0.01 µM | 0.05 µM | O=C(Nc1cn(Cc2ccc(F)c(Br)c2)cn1)c1cnc(CO)c(C(F)F)c1 [Example 62, N-[1-(3-bromo-4-fluorobenzyl)-1H-imidazol-4-yl]-5-(difluoromethyl)-6-(hydroxymethyl)nicotinamide]
42 | < 0.01 µM | 0.03 µM | O=C(Nc1cn(Cc2ccc(F)c(Cl)c2)cn1)c1cnc(CO)c(C(F)F)c1 [Example 61, N-[1-(3-chloro-4-fluorobenzyl)-1H-imidazol-4-yl]-5-(difluoromethyl)-6-(hydroxymethyl)nicotinamide]
